# ChEMBL document CHEMBL5653615 (J Biol Chem, 2013)
# Activity calls are given as the source filed them. The calls are words filed in the database; no cut-off is given here.
# Experiments:
# [1] = target: STE20/SPS1-related proline-alanine-rich protein kinase (Homo sapiens) (UniProt Q9UEW8); experiment: Inhibition of human STLK3 at 500 nM by HotSpot assay relative to control
# [2] = target: T1, Homeodomain-interacting protein kinase 4 (Homo sapiens) (UniProt Q8NE63); experiment: Inhibition of human HIPK4 at 500 nM by HotSpot assay relative to control
# T1 sequence (whole entry): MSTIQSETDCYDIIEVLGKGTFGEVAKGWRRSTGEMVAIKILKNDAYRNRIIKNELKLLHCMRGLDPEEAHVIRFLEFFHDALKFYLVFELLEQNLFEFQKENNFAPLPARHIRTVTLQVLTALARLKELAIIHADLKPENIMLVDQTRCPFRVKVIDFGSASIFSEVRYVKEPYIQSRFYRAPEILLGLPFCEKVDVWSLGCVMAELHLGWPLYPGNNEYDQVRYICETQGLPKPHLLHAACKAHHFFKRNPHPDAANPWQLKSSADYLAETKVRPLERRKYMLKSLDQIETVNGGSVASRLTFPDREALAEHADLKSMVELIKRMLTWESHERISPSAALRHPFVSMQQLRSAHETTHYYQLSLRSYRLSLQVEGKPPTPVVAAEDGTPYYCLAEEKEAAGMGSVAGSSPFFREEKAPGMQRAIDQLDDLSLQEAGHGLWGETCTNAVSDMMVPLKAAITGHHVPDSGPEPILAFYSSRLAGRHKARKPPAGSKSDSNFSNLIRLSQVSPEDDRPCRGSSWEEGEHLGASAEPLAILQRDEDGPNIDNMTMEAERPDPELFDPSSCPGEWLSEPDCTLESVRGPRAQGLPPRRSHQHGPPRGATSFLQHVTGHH
# [3] = target: T2, NUAK family SNF1-like kinase 2 (Homo sapiens) (UniProt Q9H093); experiment: Inhibition of human NUAK2 at 500 nM by HotSpot assay relative to control
# T2 sequence (whole entry): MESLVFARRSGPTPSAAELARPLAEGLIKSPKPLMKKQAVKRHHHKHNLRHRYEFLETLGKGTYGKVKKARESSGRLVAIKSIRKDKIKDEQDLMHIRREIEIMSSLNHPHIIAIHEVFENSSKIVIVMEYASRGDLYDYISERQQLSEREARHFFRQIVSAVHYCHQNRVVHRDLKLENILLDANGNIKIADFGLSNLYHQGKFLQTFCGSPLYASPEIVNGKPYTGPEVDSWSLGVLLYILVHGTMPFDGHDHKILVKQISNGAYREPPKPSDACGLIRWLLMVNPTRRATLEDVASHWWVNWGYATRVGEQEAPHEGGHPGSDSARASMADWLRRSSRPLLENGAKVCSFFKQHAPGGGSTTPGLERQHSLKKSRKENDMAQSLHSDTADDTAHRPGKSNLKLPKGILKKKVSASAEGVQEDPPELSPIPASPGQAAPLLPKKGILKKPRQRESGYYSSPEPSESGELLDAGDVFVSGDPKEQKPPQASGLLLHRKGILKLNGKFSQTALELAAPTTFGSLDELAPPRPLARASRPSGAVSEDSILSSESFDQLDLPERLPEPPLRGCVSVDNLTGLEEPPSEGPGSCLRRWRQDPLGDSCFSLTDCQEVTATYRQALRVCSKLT
# [4] = target: Mast/stem cell growth factor receptor Kit (Homo sapiens) (UniProt P10721); experiment: Inhibition of human c-Kit at 500 nM by HotSpot assay relative to control
# [5] = target: G protein-coupled receptor kinase 4 (Homo sapiens) (UniProt P32298); experiment: Inhibition of human GRK4 at 500 nM by HotSpot assay relative to control
# [6] = Inhibition of unphosphorylated human Insulin receptor (978 to 1283 residues) C981S mutant kinase domain expressed in baculovirus infected Sf9 cells incubated for 1 hr by [gamma-33P]ATP assay
# [7] = target: cAMP-dependent protein kinase (PKA) (Homo sapiens) (UniProt P22694+P17612+P22612); experiment: Inhibition of human PKA at 500 nM by HotSpot assay relative to control; assay type: protein assay
# [8] = target: T3, Mitogen-activated protein kinase kinase kinase 2 (Homo sapiens) (UniProt Q9Y2U5); experiment: Inhibition of human MEKK2 at 500 nM by HotSpot assay relative to control
# T3 sequence (whole entry): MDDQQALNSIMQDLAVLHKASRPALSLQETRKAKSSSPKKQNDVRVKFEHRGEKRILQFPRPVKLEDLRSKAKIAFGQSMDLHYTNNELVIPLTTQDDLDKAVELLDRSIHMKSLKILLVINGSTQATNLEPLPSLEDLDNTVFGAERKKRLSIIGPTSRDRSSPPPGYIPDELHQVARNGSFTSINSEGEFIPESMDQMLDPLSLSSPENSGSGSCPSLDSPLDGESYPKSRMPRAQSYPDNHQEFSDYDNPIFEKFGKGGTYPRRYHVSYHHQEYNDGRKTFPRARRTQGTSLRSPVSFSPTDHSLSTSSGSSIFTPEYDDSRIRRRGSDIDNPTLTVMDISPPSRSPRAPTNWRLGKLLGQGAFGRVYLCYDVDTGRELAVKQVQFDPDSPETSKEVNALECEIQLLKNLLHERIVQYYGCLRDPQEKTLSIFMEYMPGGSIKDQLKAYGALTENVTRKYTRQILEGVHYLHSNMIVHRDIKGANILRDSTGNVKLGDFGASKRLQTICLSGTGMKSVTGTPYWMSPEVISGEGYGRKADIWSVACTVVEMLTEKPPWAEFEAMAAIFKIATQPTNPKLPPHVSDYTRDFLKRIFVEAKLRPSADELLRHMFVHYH
# [9] = target: Casein kinase I isoform gamma-2 (Homo sapiens) (UniProt P78368); experiment: Inhibition of human CK1g2 at 500 nM by HotSpot assay relative to control
# [10] = target: Leucine-rich repeat serine/threonine-protein kinase 2 (Homo sapiens) (UniProt Q5S007); experiment: Inhibition of human LRRK2 at 500 nM by HotSpot assay relative to control
# Leucine-rich repeat serine/threonine-protein kinase 2 (Homo sapiens), sequence (Q5S007 whole entry): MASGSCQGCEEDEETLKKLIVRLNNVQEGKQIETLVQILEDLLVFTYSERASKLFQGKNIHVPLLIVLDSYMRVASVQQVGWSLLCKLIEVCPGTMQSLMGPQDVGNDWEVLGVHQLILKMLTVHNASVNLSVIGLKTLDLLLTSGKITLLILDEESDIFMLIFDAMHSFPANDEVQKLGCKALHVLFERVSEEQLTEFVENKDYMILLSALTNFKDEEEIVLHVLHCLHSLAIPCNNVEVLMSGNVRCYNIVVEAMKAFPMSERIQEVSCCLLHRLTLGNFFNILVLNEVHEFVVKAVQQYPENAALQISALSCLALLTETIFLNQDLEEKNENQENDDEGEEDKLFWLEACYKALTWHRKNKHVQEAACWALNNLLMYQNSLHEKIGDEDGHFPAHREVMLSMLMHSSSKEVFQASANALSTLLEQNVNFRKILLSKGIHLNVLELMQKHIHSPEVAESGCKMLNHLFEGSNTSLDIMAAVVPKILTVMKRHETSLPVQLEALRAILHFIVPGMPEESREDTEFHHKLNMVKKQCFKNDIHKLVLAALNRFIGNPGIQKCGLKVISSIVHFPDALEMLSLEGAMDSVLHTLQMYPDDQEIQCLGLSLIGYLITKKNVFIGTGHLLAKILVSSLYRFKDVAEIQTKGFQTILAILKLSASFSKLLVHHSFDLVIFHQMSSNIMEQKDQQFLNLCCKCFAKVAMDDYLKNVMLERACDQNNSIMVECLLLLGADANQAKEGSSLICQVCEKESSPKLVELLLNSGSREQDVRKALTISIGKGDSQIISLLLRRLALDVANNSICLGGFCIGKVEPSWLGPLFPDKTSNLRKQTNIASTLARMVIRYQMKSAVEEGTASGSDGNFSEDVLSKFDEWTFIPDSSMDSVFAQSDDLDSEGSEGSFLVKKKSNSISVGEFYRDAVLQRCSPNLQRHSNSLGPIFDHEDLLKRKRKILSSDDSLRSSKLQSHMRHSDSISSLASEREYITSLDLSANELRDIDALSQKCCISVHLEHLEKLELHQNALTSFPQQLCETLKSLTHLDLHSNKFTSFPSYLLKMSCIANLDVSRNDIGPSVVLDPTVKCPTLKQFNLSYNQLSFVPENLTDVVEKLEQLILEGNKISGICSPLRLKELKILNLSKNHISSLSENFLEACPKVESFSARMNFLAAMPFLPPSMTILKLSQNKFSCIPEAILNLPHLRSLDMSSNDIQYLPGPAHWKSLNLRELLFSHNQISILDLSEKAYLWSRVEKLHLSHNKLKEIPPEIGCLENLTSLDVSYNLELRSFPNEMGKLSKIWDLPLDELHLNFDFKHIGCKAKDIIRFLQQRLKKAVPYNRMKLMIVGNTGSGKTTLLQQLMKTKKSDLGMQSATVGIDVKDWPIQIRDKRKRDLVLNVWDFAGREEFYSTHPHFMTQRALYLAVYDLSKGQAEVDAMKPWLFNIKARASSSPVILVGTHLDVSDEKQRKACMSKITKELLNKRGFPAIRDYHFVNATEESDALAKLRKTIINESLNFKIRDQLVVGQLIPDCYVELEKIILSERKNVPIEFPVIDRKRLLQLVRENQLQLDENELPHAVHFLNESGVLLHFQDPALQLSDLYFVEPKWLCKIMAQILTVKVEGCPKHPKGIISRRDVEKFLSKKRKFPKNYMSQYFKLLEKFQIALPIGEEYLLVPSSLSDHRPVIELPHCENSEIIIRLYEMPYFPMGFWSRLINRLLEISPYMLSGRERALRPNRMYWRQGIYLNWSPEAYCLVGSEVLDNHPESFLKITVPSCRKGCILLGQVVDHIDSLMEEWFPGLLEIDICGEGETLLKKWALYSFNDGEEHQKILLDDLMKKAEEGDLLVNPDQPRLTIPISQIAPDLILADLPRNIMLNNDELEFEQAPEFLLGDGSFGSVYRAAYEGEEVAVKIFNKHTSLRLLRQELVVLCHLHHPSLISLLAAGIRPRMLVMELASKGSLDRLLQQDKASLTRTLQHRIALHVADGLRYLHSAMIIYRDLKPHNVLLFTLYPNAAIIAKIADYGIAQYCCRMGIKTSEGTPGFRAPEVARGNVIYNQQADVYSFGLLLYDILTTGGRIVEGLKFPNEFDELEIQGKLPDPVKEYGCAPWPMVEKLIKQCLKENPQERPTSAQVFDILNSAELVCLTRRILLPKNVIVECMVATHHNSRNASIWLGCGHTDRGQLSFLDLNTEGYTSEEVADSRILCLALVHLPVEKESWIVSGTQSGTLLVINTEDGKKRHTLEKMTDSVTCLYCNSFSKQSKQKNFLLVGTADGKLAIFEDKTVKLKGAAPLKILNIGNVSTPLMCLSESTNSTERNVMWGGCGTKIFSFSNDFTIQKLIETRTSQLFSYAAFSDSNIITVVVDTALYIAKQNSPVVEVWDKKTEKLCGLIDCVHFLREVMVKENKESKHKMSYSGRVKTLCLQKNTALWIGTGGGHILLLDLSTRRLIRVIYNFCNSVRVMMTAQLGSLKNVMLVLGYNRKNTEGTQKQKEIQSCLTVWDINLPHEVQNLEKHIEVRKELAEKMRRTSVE
# Mast/stem cell growth factor receptor Kit (Homo sapiens), sequence (P10721 whole entry): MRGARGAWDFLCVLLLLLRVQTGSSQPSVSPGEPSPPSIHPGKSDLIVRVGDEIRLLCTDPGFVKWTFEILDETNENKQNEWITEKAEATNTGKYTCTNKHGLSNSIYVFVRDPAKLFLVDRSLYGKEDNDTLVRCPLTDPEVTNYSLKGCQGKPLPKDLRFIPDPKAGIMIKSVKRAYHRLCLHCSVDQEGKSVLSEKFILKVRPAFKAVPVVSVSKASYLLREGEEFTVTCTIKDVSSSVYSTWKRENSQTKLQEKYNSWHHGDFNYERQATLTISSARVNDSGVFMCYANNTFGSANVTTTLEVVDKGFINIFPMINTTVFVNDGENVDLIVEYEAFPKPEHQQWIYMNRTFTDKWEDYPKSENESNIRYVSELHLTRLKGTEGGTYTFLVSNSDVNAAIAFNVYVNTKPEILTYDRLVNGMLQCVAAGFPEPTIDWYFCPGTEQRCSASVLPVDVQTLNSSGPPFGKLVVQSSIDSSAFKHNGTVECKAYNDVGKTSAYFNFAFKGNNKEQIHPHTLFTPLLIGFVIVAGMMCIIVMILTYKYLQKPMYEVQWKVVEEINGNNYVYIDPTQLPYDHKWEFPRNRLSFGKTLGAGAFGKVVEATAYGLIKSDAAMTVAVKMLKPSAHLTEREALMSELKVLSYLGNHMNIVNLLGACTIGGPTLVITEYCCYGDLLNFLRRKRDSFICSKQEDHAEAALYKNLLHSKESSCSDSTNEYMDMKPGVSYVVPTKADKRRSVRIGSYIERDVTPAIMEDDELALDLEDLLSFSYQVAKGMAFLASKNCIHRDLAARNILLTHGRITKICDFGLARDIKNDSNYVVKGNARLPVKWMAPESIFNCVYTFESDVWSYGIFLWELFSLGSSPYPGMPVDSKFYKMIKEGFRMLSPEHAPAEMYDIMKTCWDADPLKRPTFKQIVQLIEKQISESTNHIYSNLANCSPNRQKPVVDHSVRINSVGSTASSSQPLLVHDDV
# G protein-coupled receptor kinase 4 (Homo sapiens), sequence (P32298 whole entry, looked up, the tested form may be a part): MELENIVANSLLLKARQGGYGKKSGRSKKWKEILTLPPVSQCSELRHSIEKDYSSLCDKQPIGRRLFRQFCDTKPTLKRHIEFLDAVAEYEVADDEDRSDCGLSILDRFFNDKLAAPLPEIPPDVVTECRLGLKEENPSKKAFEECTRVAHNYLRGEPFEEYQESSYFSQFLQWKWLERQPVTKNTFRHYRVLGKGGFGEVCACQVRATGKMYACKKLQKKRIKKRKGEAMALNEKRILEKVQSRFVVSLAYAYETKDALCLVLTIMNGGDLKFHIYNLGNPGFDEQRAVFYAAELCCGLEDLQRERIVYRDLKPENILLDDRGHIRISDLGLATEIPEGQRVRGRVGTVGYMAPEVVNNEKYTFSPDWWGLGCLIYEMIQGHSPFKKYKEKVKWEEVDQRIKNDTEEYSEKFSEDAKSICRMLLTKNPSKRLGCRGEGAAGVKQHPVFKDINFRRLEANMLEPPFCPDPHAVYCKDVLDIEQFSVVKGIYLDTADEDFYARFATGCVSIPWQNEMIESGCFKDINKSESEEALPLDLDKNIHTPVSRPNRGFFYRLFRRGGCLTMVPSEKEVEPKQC
# Casein kinase I isoform gamma-2 (Homo sapiens), sequence (P78368 whole entry, looked up, canonical isoform): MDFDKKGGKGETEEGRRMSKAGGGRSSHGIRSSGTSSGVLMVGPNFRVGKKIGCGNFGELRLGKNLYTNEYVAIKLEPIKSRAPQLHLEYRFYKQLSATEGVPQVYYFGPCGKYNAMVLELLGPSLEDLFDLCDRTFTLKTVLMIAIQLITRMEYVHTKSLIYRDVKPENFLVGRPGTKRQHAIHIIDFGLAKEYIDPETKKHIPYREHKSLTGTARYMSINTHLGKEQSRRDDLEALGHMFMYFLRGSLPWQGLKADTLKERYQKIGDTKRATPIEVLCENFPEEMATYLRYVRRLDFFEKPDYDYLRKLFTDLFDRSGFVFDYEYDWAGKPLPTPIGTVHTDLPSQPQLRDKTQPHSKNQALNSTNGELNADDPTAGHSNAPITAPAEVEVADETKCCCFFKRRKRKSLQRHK
SMILES,inhibition [1] [%],inhibition [2] [%],inhibition [3] [%],inhibition [4] [%],inhibition [5] [%],inhibition [6],inhibition [7] [%],inhibition [8] [%],inhibition [9] [%],inhibition [10] [%]
Oc1n[nH]c2nnc(-c3c(-c4ccccc4)nn4ccccc34)cc12,7.91,9.6,-6.46,0.91,-1.17,Active,-5.26,-0.17,3.49,-1.49
Nc1n[nH]c2nnc(-c3c(-c4ccccc4)nn4ccccc34)cc12,10.9,4.73,12.7,2.89,-2.71,Active,2.35,2.22,-9.31,8.17
